Laboratory results taken from patent US5506256A, “Proline derivatives possessing prolyl endopeptidase-inhibitory activity” (Yoshitomi Pharmaceutical Industries, Ltd., priority 1990, dated 1996).
Like-named read-outs stand apart in the source and are kept apart here.

How the values were obtained:
prolyl endopeptidase = target: T1, prolyl endopeptidase (Rattus norvegicus, UniProt O70196); test: Prolyl endopeptidase-inhibitory activity; format: biochemical; details: for inhibition at 0.1 µM: read-out: inhibition rate, prolyl endopeptidase
T1 construct: prolyl endopeptidase extracted from rat brain; from tissue; host or cells: rat brain
Method: Prolyl endopeptidase-inhibitory activity
A mixture of a 0.1M potassium sodium phosphate buffer (pH 7.0) (2675 μl), a solution of the compounds of the present invention in a 0.1M potassium sodium phosphate buffer (pH 7.0) (100 μl) and a solution of prolyl endopeptidase extracted from rat brain in a 25 mM sodium phosphate buffer (100 μl) [123 unit/1, pH 6.8, containing 1 mM dithiothreitol and 0.5 mM EDTA, prepared by the method described in J. Neurochem., 35, 527 (1980)]was preincubated at 30° C. for 30 minutes. Thereto was added a 0.2 mM solution of 7-(N-succinyl-glycyl-prolyl)-4-methylcoumarinamide (Peptide Institute, INC.) in a 0.1M potassium sodium phosphate buffer (pH 7.0) (125 μl), and the mixture was incubated at 30° C. for 1 hour. The reaction mixture was immersed in ice (0° C.) to terminate the reaction, and the fluorescence (a1) was determined ten minutes later (excitation at 370 nm and emission at 440 nm). Concurrently, there were conducted the experiment wherein, in the above system, the prolyl endopeptidase solution was substituted for a 25 mM sodium phosphate buffer (pH 6.8, containing 1 mM dithiothreitol and 0.5 mM EDTA) and the experiment wherein the solution of the compounds of the present invention was substituted for a 0.1M potassium sodium phosphate buffer (pH 7.0). Each fluorescence (a2 and a3) was determined respectively [See Tanpakushitsu Kakusan Koso, 29, 127 (1984)]. The prolyl endopeptidase-inhibition rate was calculated by the following formula, and IC50, a concentration of a compound producing 50% inhibition, was estimated by semilogarithmic graph paper. [formula] […]

trypsin = target: T2, trypsin (Bos taurus, UniProt P00760); test: Determination of trypsin-inhibitory activity; format: biochemical, bovine; details: 0.1 μM; read-out: inhibition rate, trypsin
T2 construct: purchased Sigma; host or cells: bovine pancreas
T2 sequence (P00760 24-246): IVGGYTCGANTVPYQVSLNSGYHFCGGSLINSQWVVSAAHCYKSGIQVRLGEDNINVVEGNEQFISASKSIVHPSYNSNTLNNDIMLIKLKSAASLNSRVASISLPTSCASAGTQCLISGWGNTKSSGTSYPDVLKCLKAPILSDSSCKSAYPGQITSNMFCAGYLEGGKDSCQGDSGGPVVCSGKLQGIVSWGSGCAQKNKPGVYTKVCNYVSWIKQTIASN
Method: (§1) The methods for the measurement of inhibitory activities against various proteases and the method for calculating the inhibition rate are as follows.
Determination of trypsin-inhibitory activity
In the present invention, a 50 mM Tris-HCl buffer (pH 8.0) was employed as a buffer for measurement.
To a mixture of the above-mentioned buffer (850 μl), a solution of the compounds of the present invention in the same buffer (50 μl) and a 0.02 μM solution of trypsin (derived from bovine pancreas, Sigma) in the same buffer (50 μl) was added a 200 μM solution of 7-(prolyl-phenylaranyl-arginyl)-4-methylcoumarinamide (Peptide Institute, Inc.) in the same buffer (50 μl),and the mixture was incubated at 30° C. for 1 hour. The reaction mixture was immersed in ice (0° C.) to terminate the reaction, and the fluorescence (b1) was determined 1 hour later (excitation at 370 nm and emission at 440 nm). Concurrently, there were conducted the experiment wherein, in the system above, the trypsin solution was substituted for a buffer alone, and the experiment wherein the solution of the compounds of the present invention was substituted for a buffer above. Each fluorescence (b2 and b3) was determined respectively.
(§2) Using the fluorescence x1, x2 and x3 measured in the abovementioned manner, the inhibitory rate against various proteases was calculated by the following formula where x stands for b, c, d, e or f: [formula]

cathepsin B = target: T3, cathepsin B (Bos taurus, UniProt P07688); test: Determination of cathepsin B-inhibitory activity; format: biochemical, bovine; details: 0.1 μM; read-out: inhibition rate, cathepsin B
T3 construct: purchased Sigma; host or cells: bovine spleen
Method: as §1
Determination of cathepsin B-inhibitory activity
Similarly, by following the procedure mentioned above, but employing a 100 mM sodium phosphate buffer (pH 6.0; containing 1.33 mM EDTA Na2) as a buffer for measurement, a 0.02 μM solution of cathepsin B (derived from bovine spleen, Sigma) in the same buffer as an enzyme solution and a 200 μM solution of 7-(N-benzyloxycarbonyl-phenylaranyl-arginyl)-4-methylcoumarinamide (Peptide Institute, Inc.) in the same buffer as a substrate solution, each fluorescence (f1, f2 and f3) was determined, respectively.
as §2

elastase = target: T4, elastase (Sus scrofa, UniProt P00772); test: Determination of elastase-inhibitory activity; format: biochemical, swine; details: 0.1 μM; read-out: inhibition rate, elastase
T4 construct: purchased Sigma; host or cells: swine pancreas
Method: as §1
Determination of elastase-inhibitory activity
Similarly, by following the procedure mentioned above, but employing a 1 mM Tris-HCl buffer (pH 8.5) as a buffer for measurement, a 0.2 μM solution of elastase (derived from swine pancreas, Sigma) in the same buffer as an enzyme solution and a 200 μM solution of 7-(N-succinyl-aranyl-prolyl-aranyl)-4-methylcoumarinamide (Peptide Institute, Inc.) in the same buffer as a substrate solution, each fluorescence (e1, e2 and e3) was determined, respectively.
as §2

chymotrypsin = target: T5, chymotrypsin (Bos taurus, UniProt P00766); test: Determination of chymotrypsin-inhibitory activity; format: biochemical, bovine; details: 0.1 μM; read-out: inhibition rate, chymotrypsin
T5 construct: purchased Sigma; host or cells: bovine pancreas
Method: as §1
Determination of chymotrypsin-inhibitory activity
Similarly, by following the procedure mentioned above, but employing a 50 mM Tris-HCl buffer (pH 8.0) as a buffer for measurement, a 0.2 μM solution of chymotrypsin (derived from bovine pancreas, Sigma) in the same buffer as an enzyme solution and a […] solution of 7-(N-succinyl-leucyl-leucyl-valyl-tyrosyl)-4-methylcoumarinamide (Peptide Institute, Inc.) in the same buffer as a substrate solution, each fluorescence (c1, c2 and c3) was determined, respectively.
as §2

leucine aminopeptidase = test: Determination of leucine aminopeptidase-inhibitory activity; format: biochemical, swine; set-up: unit not given here; details: 0.1 μM
Method: as §1
Determination of leucine aminopeptidase-inhibitory activity
Similarly, by following the procedure mentioned above, but employing a 50 mM Tris-HCl buffer (pH 8.0) as a buffer for measurement, a […] solution of leucine aminopeptidase (derived from swine kidney, Sigma) in the same buffer as an enzyme solution and a 200 μM solution of 7-leucyl-4-methyl-coumarinamide (Peptide Institute, Inc.) in the same buffer as a substrate solution, each fluorescence (d1, d2 and d3) was determined, respectively.
as §2

[1] = prolyl endopeptidase extracted from rat brain, pH 7.0, 30° C., read-out: IC50

T1 sequence (O70196 whole entry): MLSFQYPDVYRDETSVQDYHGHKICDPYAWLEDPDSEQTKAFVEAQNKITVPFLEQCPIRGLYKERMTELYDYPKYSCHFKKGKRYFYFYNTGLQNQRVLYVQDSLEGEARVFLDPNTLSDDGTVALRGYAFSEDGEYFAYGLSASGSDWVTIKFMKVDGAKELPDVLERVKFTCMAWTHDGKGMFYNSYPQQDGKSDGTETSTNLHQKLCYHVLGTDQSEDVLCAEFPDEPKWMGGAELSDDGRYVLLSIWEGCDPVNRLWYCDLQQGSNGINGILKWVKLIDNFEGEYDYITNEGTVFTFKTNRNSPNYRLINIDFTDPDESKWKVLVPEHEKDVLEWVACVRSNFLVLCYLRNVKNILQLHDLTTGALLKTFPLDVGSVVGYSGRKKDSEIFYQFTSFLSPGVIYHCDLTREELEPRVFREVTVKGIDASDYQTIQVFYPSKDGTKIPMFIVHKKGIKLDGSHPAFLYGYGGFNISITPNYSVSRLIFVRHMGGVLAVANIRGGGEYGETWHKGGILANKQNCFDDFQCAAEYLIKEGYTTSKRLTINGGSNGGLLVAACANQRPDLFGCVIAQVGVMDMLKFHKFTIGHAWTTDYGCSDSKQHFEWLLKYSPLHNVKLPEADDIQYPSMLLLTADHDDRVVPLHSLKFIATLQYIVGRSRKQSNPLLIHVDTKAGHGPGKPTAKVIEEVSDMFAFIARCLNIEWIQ
T4 sequence (P00772 27-266): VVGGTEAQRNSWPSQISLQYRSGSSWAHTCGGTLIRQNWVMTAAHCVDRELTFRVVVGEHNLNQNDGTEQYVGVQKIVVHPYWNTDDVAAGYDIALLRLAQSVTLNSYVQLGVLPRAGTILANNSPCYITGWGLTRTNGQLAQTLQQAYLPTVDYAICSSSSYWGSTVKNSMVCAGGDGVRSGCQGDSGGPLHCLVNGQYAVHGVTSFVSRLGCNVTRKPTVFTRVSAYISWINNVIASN

Compound	inhibition at 0.1 µM (prolyl endopeptidase)	IC50 (prolyl endopeptidase; [1])	inhibition at 0.1 µM (trypsin)	inhibition at 0.1 µM (cathepsin B)	inhibition at 0.1 µM (elastase)	inhibition at 0.1 µM (chymotrypsin)	inhibition rate, leucine aminopeptidase (leucine aminopeptidase)	IC50 (prolyl endopeptidase)
O=C(CSc1ccccc1)[C@@H]1CCCN1C(=O)[C@@H]1CCCN1C(=O)OCc1ccccc1 [Compound 1, (2S)-1-(N-Benzyloxycarbonyl-L-prolyl)-2-[(Phenylthio)acetyl]-pyrrolidine]	90%	0.3 nM	0%	0%	0%	20%	0	–
O=C(C[S+]([O-])c1ccccc1)[C@@H]1CCCN1C(=O)[C@@H]1CCCN1C(=O)OCc1ccccc1 (stereo partly drawn) [Compound 2, (2S)-1-(N-Benzyloxycarbonyl-L-prolyl)-2-[(phenylsulfinyl)-acetyl]pyrrolidine]	100%	1.2 nM	0%	0%	0%	0%	0	–
O=C(CS(=O)(=O)c1ccccc1)[C@@H]1CCCN1C(=O)[C@@H]1CCCN1C(=O)OCc1ccccc1 [Compound 3, (2S)-1-(N-Benzyloxycarbonyl-L-prolyl)-2-[(phenylsulfonyl)-acetyl]pyrrolidine]	91%	12 nM	0%	0%	0%	0%	0	–
O=C(COc1ccccc1)[C@@H]1CCCN1C(=O)[C@@H]1CCCN1C(=O)OCc1ccccc1 [Compound 4, (2S)-1-(N-Benzyloxycarbonyl-L-prolyl)-2-(phenoxyacetyl)-pyrrolidine]	98%	0.3 nM	0%	0%	0%	0%	0	–
O=C(C[S+]([O-])c1ccccc1)[C@@H]1CCCN1C(=O)[C@@H]1CCCN1C(=O)CCCc1ccccc1 (stereo partly drawn) [Compound 5, (2S)-1-[N-(4-Phenylbutyryl)-L-prolyl]-2-[(phenylsulfinyl)-acetyl]pyrrolidine]	98%	0.3 nM	0%	0%	0%	0%	0	–
COc1ccc([S+]([O-])CC(=O)[C@@H]2CCCN2C(=O)[C@@H]2CCCN2C(=O)OCc2ccccc2)cc1 (stereo partly drawn) [Compound 6, (2S)-1-(N-Benzyloxycarbonyl-L-prolyl)-2-[(4-methoxyphenylsulfinyl)acetyl]pyrrolidine]	98%	0.65 nM	0%	20%	0%	0%	0	–
O=C(C[S+]([O-])c1ccc([N+](=O)[O-])cc1)[C@@H]1CCCN1C(=O)[C@@H]1CCCN1C(=O)OCc1ccccc1 (stereo partly drawn) [Compound 7, (2S)-1-(N-Benzyloxycarbonyl-L-prolyl)-2-[(4-nitrophenylsulfinyl)acetyl]pyrrolidine]	97%	1 nM	0%	20%	0%	0%	0	–
CC(C)[S+]([O-])CC(=O)[C@@H]1CCCN1C(=O)[C@@H]1CCCN1C(=O)OCc1ccccc1 (stereo partly drawn) [Compound 8, (2S)-1-(N-Benzyloxycarbonyl-L-prolyl)-2-[(isopropylsulfinyl)-acetyl]pyrrolidine]	92%	3 nM	0%	0%	0%	0%	0	–
O=C(C[S@+]([O-])c1ccccc1)[C@@H]1CCCN1C(=O)[C@@H]1CCCN1C(=O)OCc1ccccc1 [Compound 9, (2S)-1-(N-Benzyloxycarbonyl-L-prolyl)-2-{[(S)-phenylsulfinyl]-acetyl}pyrrolidine]	98%	0.2 nM	0%	0%	0%	0%	0	–
O=C(C[S@@+]([O-])c1ccccc1)[C@@H]1CCCN1C(=O)[C@@H]1CCCN1C(=O)OCc1ccccc1 [Compound 10, (2S)-1-(N-Benzyloxycarbonyl-L-prolyl)-2-{[(R)-phenylsulfinyl]acetyl}pyrrolidine]	97%	80 nM	0%	0%	0%	0%	0	–
COc1ccc([S@@+]([O-])CC(=O)[C@@H]2CCCN2C(=O)[C@@H]2CCCN2C(=O)OCc2ccccc2)cc1 [Compound 11, (2S)-1-(N-Benzyloxycarbonyl-L-prolyl)-2-{[(S)-4-methoxy-phenylsulfinyl]acetyl}pyrrolidine]	90%	1.5 nM	0%	0%	0%	0%	0	–
O=C(COc1ccc2c(c1)OCO2)[C@@H]1CCCN1C(=O)[C@@H]1CCCN1C(=O)NCc1ccccc1 [Compound 33, (2S)-1-[N-(Benzylaminocarbonyl)-L-prolyl]-2-{[(3,4-methylenedioxy)phenoxy]acetyl} pyrrolidine]	96%	–	0%	0%	0%	0%	–	1 nM
